Row | SMILES | melting point [°C]
1 | Cc1cc(/C=C/C#N)cc(C)c1Nc1nc(Nc2ccc(C#N)cc2)ncc1NCc1cccnc1 | 140
2 | Cc1cc(/C=C/C#N)cc(C)c1Nc1nc(Nc2ccc(C#N)cc2)ncc1CNCc1cccnc1 | 236
3 | CCc1cscn1 | > 250
